# Reference: patent US20210177889A1, “GASEOUS PHARMACEUTICAL COMPOSITION FOR HYPERTENSION THERAPY” (KEIO UNIVERSITY, priority 2019, published 2021)
# Tests used:
# [1] = test system: hypertension attributed to 5/6 nephrectomy; assay: Continuous telemetry blood pressure monitoring after 5/6 nephrectomy with daily H2 inhalation; format: in vivo, Lewis rat
# Excerpt: In order to monitor continuous blood pressure fluctuation, telemetry transmitters were implanted into rats. Specifically, rats were anesthetized with isoflurane, and the left groin was disinfected with 1% chlorhexidine. An incision of about 1.5 cm was made in the left groin, the left femoral artery was exposed, and a telemetry transmitter (HD-S10, Physiotel HD Telemetry, Data Science International) catheter was inserted into the left femoral artery. The tip of the transmitter catheter was placed in the abdominal aorta caudally from the branch of the renal artery. The transmitter body was inserted into a subcutaneous pocket made in the left lower back, and the skin was sutured. All surgical intervention was performed under sterile conditions. In order to elicit renal hypertension, 5/6 nephrectomy was carried out with slight modification to previously described methods (Nephrology (Carlton) 19, 552-561; 10.1111/nep.12279 (2014); J. Am. Soc. Nephrol. 4, 2023-2031 (1994); and Kidney Int. 40, 29-34; 10.1038/ki.1991.175 (1991).). Briefly, rats were anesthetized by isoflurane inhalation (induction at 4% and maintenance at 1.5%), and upper midline laparotomy of about 4 cm was carried out. Surgical operation was performed under a microscope, the left renal artery branch was identified, and selectively ligated with 7-0 silk at a position as close as possible to the left kidney so that macroscopic infarction is caused in about ⅔ of the left renal cortex. In the first pilot research (FIGS. 1a and 2), a high-temperature cautery pen (AA11, Bovie, Tenn., U.S.A.) was used to add the resection of the infarcted portion of the kidney. Subsequently, the right renal artery, the renal vein, and the urinary duct was ligated with 4-0 silk, and the right kidney were resected. The abdominal wall and the skin were closed with a 4-0 nylon thread. The anesthetic time was uniformly 30 minutes in all rats. H2 gas (1.3% H2+21% O2+77.7 N2) and control gas (21% O2+79% N2) were filled into gas cylinders in advance at a factory. The H2 group and the control group were allowed to inhale the H2 gas and the control gas that were mixed in advance. All animals were allowed to inhale the assigned gas at 10 L/minute for 1 hour in an established anesthesia box, and inhaled for an additional three minutes to purge the box (i.e. a total of 63 minutes). In the nephrectomy model and SHR, gas inhalation was repeated every day for 4 weeks and 2 weeks, respectively. In order to investigate the time course necessary for H2 gas to exert therapeutic effect, rats implanted with telemetry (8 weeks-old; 3 for each group) were subjected to 5/6 nephrectomy, and the blood pressure fluctuation was continuously monitored (FIG. 1b). In the first gas inhalation immediately after 5/6 nephrectomy, the blood pressure of the H2 gas group was reduced compared to the control group (117.4±1.8 mmHg vs. 125.6±4.7 mmHg, P=0.04). […] Before the start of inhalation on Day 2, there was no difference in blood pressure between the two groups. […] To examine the anti-hypertensive effect of H2 in more detail, chronic and continuous monitoring of blood pressure using a non-invasive method with a wireless implantable telemetry system (FIG. 5a) was conducted. Gas inhalation was started on the day of 5/6 nephrectomy and continued for 4 weeks. Again, there was no difference in the time course of change in renal function between the two groups.
# [2] = test system: hypertension established after 5/6 nephrectomy; assay: Therapeutic effect of delayed H2 inhalation on hypertension established after 5/6 nephrectomy (tail-cuff); format: in vivo, Lewis rat; conditions: N=17
# Procedure: At about 24 hours after the final gas inhalation of 5/6 nephrectomized rats, blood pressure and heart rate were non-invasively measured using the tail-cuff pressure measurement method (BP-98A, Softron). The hemodynamics parameter was measured three times, and the median was adopted as the representative value. In order to elicit renal hypertension, 5/6 nephrectomy was carried out with slight modification to previously described methods (Nephrology (Carlton) 19, 552-561; 10.1111/nep.12279 (2014); J. Am. Soc. Nephrol. 4, 2023-2031 (1994); and Kidney Int. 40, 29-34; 10.1038/ki.1991.175 (1991).). Briefly, rats were anesthetized by isoflurane inhalation (induction at 4% and maintenance at 1.5%), and upper midline laparotomy of about 4 cm was carried out. Surgical operation was performed under a microscope, the left renal artery branch was identified, and selectively ligated with 7-0 silk at a position as close as possible to the left kidney so that macroscopic infarction is caused in about ⅔ of the left renal cortex. In the first pilot research (FIGS. 1a and 2), a high-temperature cautery pen (AA11, Bovie, Tenn., U.S.A.) was used to add the resection of the infarcted portion of the kidney. Subsequently, the right renal artery, the renal vein, and the urinary duct was ligated with 4-0 silk, and the right kidney were resected. […]
smiles,measurement,setting,value
"[2H][2H] [H2 gas, Molecular hydrogen (H2)]",time course of change in renal function between the two groups,"[1]; 5/6 nephrectomy, 4 weeks of gas inhalation",no difference
same,blood pressure before inhalation compared to the control group,"[1]; after Week 1 of daily inhalation, telemetry",began to decrease
same,difference in blood pressure between H2 and control groups when inhalation was stopped,"[1]; after the first gas inhalation, telemetry",immediately disappeared
same,blood pressure in the first gas inhalation,"[1]; first inhalation immediately after 5/6 nephrectomy, telemetry, N=3, P=0.04 vs control (125.6±4.7)",117.4±1.8 mmHg
same,decrease in blood pressure with longer period of gas inhalation vs control 5/6 nephrectomy,"[1]; inhalation from the day of 5/6 nephrectomy for 4 weeks, telemetry, P<0.05",greater decrease
same,difference in blood pressure between the two groups before the start of inhalation on Day 2,"[1]; telemetry, before inhalation, Day 2",no difference
same,duration of hypotensive effect,"[2]; delayed inhalation, one hour daily for 4 weeks",continued through the inhalation duration
same,blood pressure (established hypertension),"[2]; inhalation started 3 weeks after 5/6 nephrectomy, one week after starting H2 inhalation, no statistically significant difference",began to decrease
